Patent publication US9320722B2, “Regulators of aldehyde dehydrogenase ALDH3A1 and related therapeutic methods” (Indiana University Research and Technology Corporation, priority 2013, dated 2016)
pIC50: −log10 of the molar value. Read-outs that look alike come from different tables or passages of the source.

Legend:
[1] = target: T1, ALDH3A1 (Homo sapiens (Human), UniProt P30838)
Description: (§1) The enzymatic activity of ALDH1A1, ALDH2 and ALDH3A1 were measured as described previously^[30,34,37,39].
(§2) All reactions were initiated by the addition of the aldehyde substrate. The inhibition curves were fit to the Logistic four parameter IC50 equation using the SigmaPlot (v11, StatSys). We characterized the mode of inhibition using steady-state kinetics through co-variation of inhibitor and substrate concentrations. The steady state kinetic measurements were performed in 100 mM Na2HPO4 buffer, pH 7.5. […] In all cases—including the control reactions lacking inhibitors, the final reaction mixture contained 2% (v/v) DMSO. The reaction was initiated by addition of substrate and the initial rate of product formation was determined on a Beckman DU-640. All data were fit to the non-linear velocity expressions for competitive, non-competitive, mixed-type non-competitive and uncompetitive inhibition^[40]. Appropriateness of the inhibition model was determined through analysis of goodness-of-fit and the residuals of those fits. Lineweaver-Burke plots were created using SigmaPlot (v11, StatSys) to visualize the inhibition patterns. All data represent the average of three independent experiments utilizing triplicate assays at each concentration point.
(§3) ALDH1A1, ALDH2 and ALDH3A1 activities were measured as described earlier^33,44,45. […] Reaction was initiated by the addition of the aldehyde substrate. […] The inhibition curves were fit to the Logistic four parameter IC50 equation using the SigmaPlot (v11, StatSys). Steady state kinetic experiments were performed by co-varying inhibitor and substrate concentrations. The steady state kinetic measurements were performed in 100 mM Na2HPO4 buffer, pH 7.5.

[2] = target: ALDH1A1 (Homo sapiens (Human), UniProt P00352); experiment: ALDH1A1 dehydrogenase activity / IC50 determination (propionaldehyde substrate); format: biochemical; details: for pIC50: Table 4, hits from ChemDiv screen, read-out: IC50 (micromolar) ALDH1A1
Sequence of ALDH1A1 (P00352 whole entry): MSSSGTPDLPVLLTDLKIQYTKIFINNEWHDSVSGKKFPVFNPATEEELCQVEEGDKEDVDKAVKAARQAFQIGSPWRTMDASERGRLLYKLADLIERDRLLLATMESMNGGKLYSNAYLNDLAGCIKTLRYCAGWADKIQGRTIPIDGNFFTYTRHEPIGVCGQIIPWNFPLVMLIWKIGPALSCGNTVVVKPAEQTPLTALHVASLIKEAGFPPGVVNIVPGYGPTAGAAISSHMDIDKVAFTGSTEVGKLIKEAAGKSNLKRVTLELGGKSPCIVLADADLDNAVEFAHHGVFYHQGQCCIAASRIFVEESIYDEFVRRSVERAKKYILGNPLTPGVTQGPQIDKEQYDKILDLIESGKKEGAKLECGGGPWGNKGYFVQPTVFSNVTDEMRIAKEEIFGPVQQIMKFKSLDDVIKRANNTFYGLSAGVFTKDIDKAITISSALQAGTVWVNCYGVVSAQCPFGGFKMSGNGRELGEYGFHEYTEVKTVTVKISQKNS
Description: as §1, §2, §3

[3] = target: ALDH2 (Homo sapiens (Human), UniProt P05091); experiment: ALDH2 dehydrogenase activity / IC50 determination (propionaldehyde substrate); format: biochemical; details: for pIC50: Table 4, hits from ChemDiv screen, NI not defined, read-out: IC50 (micromolar) ALDH2
Sequence of ALDH2 (P05091 18-517): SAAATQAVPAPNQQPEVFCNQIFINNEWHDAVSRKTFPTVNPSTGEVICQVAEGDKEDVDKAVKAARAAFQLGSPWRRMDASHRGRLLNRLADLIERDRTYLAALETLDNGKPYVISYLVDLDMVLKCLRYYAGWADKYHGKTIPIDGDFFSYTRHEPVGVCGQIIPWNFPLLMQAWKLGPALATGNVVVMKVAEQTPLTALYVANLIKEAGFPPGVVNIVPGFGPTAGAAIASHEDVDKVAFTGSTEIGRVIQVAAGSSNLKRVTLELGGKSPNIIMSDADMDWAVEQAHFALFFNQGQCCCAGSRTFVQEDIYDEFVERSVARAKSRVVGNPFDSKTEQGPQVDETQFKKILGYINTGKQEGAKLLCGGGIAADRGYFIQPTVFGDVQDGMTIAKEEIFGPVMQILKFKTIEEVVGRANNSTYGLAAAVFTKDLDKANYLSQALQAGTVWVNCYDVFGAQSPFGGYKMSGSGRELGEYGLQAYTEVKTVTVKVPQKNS
Description: The enzymatic activity of ALDH1A1, ALDH2 and ALDH3A1 were measured as described previously^[30,34,37,39]. The specific activities of the purified proteins were 1.9, 3.8 and 32 μmole/min/mg for ALDH1A1, ALDH2 and ALDH3A1 respectively.
as §2, §3

[4] = system: SF767 cells; experiment: MTT assay for cell proliferation / mafosfamide sensitivity, SF767; format: cell-based; details: for chemosensitivity to mafosfamide (in words), SF767: 10 μM inhibitor + mafosfamide
[5] = Solubility; format: physicochemical; details: in the presence of […] DMSO
[6] = system: A549 cells; experiment: MTT assay for cell proliferation / mafosfamide sensitivity, A549; format: cell-based; details: FIG. 4A
[7] = target: T1, ALDH3A1; experiment: biochemical; details: read-out: % activity left after treating with 10 micromolar inhibitor ALDH3A1
Description: as §1, §2, §3

[8] = target: ALDH3A1 activity in A549 cell lysates (Homo sapiens (Human), UniProt P30838); format: biochemical; details: 50 μM CB29
Sequence of ALDH3A1 activity in A549 cell lysates (P30838 whole entry): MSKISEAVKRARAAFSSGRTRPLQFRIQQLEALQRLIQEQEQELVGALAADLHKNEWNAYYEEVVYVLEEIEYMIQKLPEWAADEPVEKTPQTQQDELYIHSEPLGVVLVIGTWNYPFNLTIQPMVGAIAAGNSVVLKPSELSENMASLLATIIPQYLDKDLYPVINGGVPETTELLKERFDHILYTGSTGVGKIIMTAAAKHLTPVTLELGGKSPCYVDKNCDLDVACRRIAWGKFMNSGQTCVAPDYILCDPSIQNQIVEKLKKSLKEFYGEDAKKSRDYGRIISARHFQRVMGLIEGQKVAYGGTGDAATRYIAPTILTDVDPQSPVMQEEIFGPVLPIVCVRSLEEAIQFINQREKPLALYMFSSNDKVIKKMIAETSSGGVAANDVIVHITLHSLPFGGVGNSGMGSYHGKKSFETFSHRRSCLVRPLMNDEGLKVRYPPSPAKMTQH
Description: (§4) A549, SF767 and CCD13Lu cell lysates were collected exactly the same way as described before and 50 μg of cell lysate was used in the activity assay. […] All assays contained 1% (v/v) DMSO.
(§5) Cell lysates were obtained from A549, SF767 and CCD13Lu cell lines. In summary, cells (A549, SF767 and CCD13Lu) were washed with ice cold PBS to remove residual media. 400 μL of RIPA buffer (Cell signaling technologies) containing 1 mM PMSF (Sigma Aldrich) was added to each 10 cm dish. Plates were incubated on ice for 5 minutes, scraped and lysates were collected. Lysates were centrifuged for 10 minutes at 16,000×G in a micro-centrifuge at 4° C. Protein concentrations were measured using the Bradford reagent (Biorad Laboratories). 50 μg of cell lysate was used in the activity assay. […] All assays, including the controls, contained 1% (v/v) DMSO.

[9] = target: T1, ALDH3A1; format: biochemical; details: 50 μM CB29
Description: as §4, §5

[10] = target: ALDH3A1 activity in SF767 cell lysates (Homo sapiens (Human), UniProt P30838); format: biochemical; details: 50 μM CB29
Sequence of ALDH3A1 activity in SF767 cell lysates (P30838 whole entry): as above
Description: as §4, §5

[11] = read-out: IC50 (micromolar) ALDH3A1, Table 4, hits from ChemDiv screen
[12] = read-out: ALDH3A1 IC50 (micromolar), Table 4(B), hits from ChemBridge screen

T1 sequence (P30838 whole entry): as above

SMILES: O=C1Nc2ccccc2C12Oc1ccccc1C1CC(c3ccccc3)=NN12 (stereo not shown) [CD3]
- pIC50 [1, 11]: 4.41
- pIC50 [2]: 5.19
- pIC50 [3]: 4.38

SMILES: O=C(CCN1CCOCC1)c1ccc2c(c1)OCCO2 [CB13]
- pIC50 [1, 12]: 4.93

SMILES: CNS(=O)(=O)c1ccc(Nc2ccc(OC(F)F)cc2)c([N+](=O)[O-])c1 [Compound 11]
- pIC50 ([1]; read-out: IC50 (micromolar) ALDH3A1, Tables 1A/1B, benzaldehyde substrate, S.D. for three assays in parentheses): 4.61
- pIC50 ([1]; read-out: IC50 against ALDH3A1, benzaldehyde substrate): 4.62
- inhibitory potential / activity toward ALDH1A1 in vitro (in words) ([2]; CB29 analogs): no inhibitory potential
- sensitivity to mafosfamide on co-treatment (in words), SF767 ([4]; 50 μM inhibitor + […] mafosfamide, FIG. 4B): increased sensitivity to mafosfamide
- effect on cell proliferation as single agent (in words), SF767 ([4]; 50 μM inhibitor, FIG. 4B): little effect on cell proliferation
- inhibitory potential toward ALDH2 activity in vitro (in words) ([3]; CB29 analogs): no inhibitory potential
- concentration of homogenous solution easily formed [5]: ≥ 100 µM
- sensitivity to mafosfamide on co-treatment (in words), A549 ([6]; 50 μM inhibitor + mafosfamide): increased sensitivity to mafosfamide
- effect on cell proliferation as single agent (in words), A549 ([6]; 50 μM inhibitor): little effect on cell proliferation

SMILES: Cc1ccc(-c2ccc(/C=C/[N+](=O)O)o2)c(Br)c1 [CB39]
- inhibition at 10 µM [7]: 32%

SMILES: CN(CC(=O)[O-])c1nc2ccc([N+](=O)O)cc2s1 [CB21]
- inhibition at 10 µM [7]: 58%

SMILES: O=C(NC(O)C(=O)c1cccs1)c1cccnc1 (stereo not shown) [CD11]
- pIC50 [1, 11]: 4.99
- pIC50 [2]: 5.23
- pIC50 [3]: 5.19

SMILES: N#CC(Cc1ccc(S(=O)(=O)c2ccc(Cl)cc2)cc1)c1nc2ccccc2[nH]1 (stereo not shown) [CB10]
- inhibition at 10 µM [7]: 58%

SMILES: CCOC(=O)CN1C(=O)C(O)(CC(=O)c2ccncc2)c2ccccc21 (stereo not shown) [CD8]
- pIC50 [1, 11]: 5.20
- pIC50 [2]: 6.10
- pIC50 [3]: 4.95

SMILES: CC(=O)c1nc2ccccc2n1S(=O)(=O)c1ccc(Cl)cc1 [Compound B37]
- chemosensitivity to mafosfamide (in words), SF767 [4]: significantly increased chemosensitivity

SMILES: CCSc1nnc2c(n1)OC(C(=O)c1ccc(OC)cc1)Nc1ccccc1-2 (stereo not shown) [CD5]
- pIC50 [1, 11]: 5.82
- pIC50 [2]: 5.09
- pIC50 [3]: 5.92

SMILES: O=[N+](O)c1ccccc1CNc1ccc(F)c(F)c1 [CB2]
- pIC50 [1, 12]: 5.28

SMILES: Cc1ccc(/C=C/[N+](=O)O)cc1Br [CB37]
- inhibition at 10 µM [7]: 30%

SMILES: O=C(CSc1ccccc1)NCc1ccco1 [CB23]
- inhibition at 10 µM [7]: 65%

SMILES: COc1ccc(/C=C/[N+](=O)O)cc1Br [CB38]
- inhibition at 10 µM [7]: 40%

SMILES: OCCCn1c(-c2ccc(Cl)cc2)cn2c3ccccc3nc12 [CB11]
- inhibition at 10 µM [7]: 61%

SMILES: C#CCOc1c(Cl)cc(/C=C/[N+](=O)O)cc1OC [CB42]
- inhibition at 10 µM [7]: 46%

SMILES: COc1ccc(/C=C/[N+](=O)O)cc1I [CB40]
- inhibition at 10 µM [7]: 30%

SMILES: CCCC1C(C#N)=C(SCC(=O)c2ccc(Br)cc2)NC(C)=C1C(C)=O (stereo not shown) [CD14]
- pIC50 [1, 11]: 4.15
- pIC50 [2]: 4.98
- pIC50 [3]: 4.86

SMILES: CC(=O)Nc1ccc(Nc2ccc(S(C)(=O)=O)cc2[N+](=O)[O-])cc1 [CB29, N-[4-{(4-(methylsulfonyl)-2-nitrophenyl)-4-amino}-phenyl]-acetamide]
- inhibition toward ALDH1A1 ([2]; up to 250 μM): < 5%
- ED50 value of mafosfamide in the presence of inhibitor, SF767 ([4]; 50 μM inhibitor, 146±2 μM without inhibitor): 92 ± 4 µM
- decrease of ALDH3A1 activity in A549 cell lysate [8]: > 95%
- decrease of activity of recombinant ALDH3A1 [9]: ~97%
- inhibition toward ALDH2 ([3]; up to 250 μM): < 5%
- concentration of homogenous solution easily formed [5]: ≥ 100 µM
- decrease of ALDH3A1 activity in SF767 cell lysate [10]: > 90%

SMILES: Cc1ccc(C)c(Nc2ccc(S(C)(=O)=O)cc2[N+](=O)[O-])c1 [Compound 7]
- IC50 (micromolar) ALDH1A1 ([2]; Tables 1A/1B, propionaldehyde substrate, S.D. in parentheses): WA (WA represents (30-50) % activation shown by 100 μM compound to respective enzymes)

SMILES: Cc1ccc(S(=O)(=O)NC(O)C(=O)c2cccs2)cc1 (stereo not shown) [CD10]
- pIC50 [1, 11]: 5.47
- pIC50 [2]: 5.40
- pIC50 [3]: 5.66

SMILES: CCOc1cc(/C=C/[N+](=O)O)ccc1O [CB26]
- inhibition at 10 µM [7]: 45%

SMILES: O=S(=O)(c1ccc(Cl)cc1)n1cnc2ccccc21 [Compound A21]
- chemosensitivity to mafosfamide (in words), SF767 [4]: significantly increased chemosensitivity
